Reference: patent US7857804B2, “Use of Bcl inhibitors for the prevention of fibroproliferative reclosure of dilated blood vessels and other iatrogenic fibroproliferative disorders” (priority 2006, dated 2010)

Assays:
[1] = tested on: R1GFP (human atherosclerosis-derived cell line with known resistance to fas ligation); test: MTT cell survival after fas ligation (CH11), GFP-only expressing cell line; format: cell-based; conditions: for effect on cell survival in the absence of fas (drug alone): AA3 20 μg/ml, no CH11
Description: (§1) Cells for study were derived from human carotid artery atherosclerotic lesions, by published methods. Additionally, cell lines were subcloned and tested for sensitivity to fas ligation. In the present studies, clonal lines with known resistance to fas ligation were used.
(§2) Induction of apoptosis was achieved by reduction of serum concentration from 10% to 1% FBS for 24 hours prior to adding an activating antibody to fas (CH11, Upstate Biotechnology) at a typical concentration of 50-500 ng/ml. Typically 24-48 hours after fas ligation by CH11, cell survival was determined by measuring metabolic activity by the MTT method.
In addition to the BCL-inhibitor, this sensitizing effect was also observed with AA. As above, a human atherosclerosis-derived cell line with known resistance to fas ligation was used for study. In this case, the cell line was stably infected with a retrovirus expressing either an irrelevant marker gene (green fluorescent protein, GFP) or the marker gene and Bcl-Xl. In the GFP-only expressing cell line (R1GFP), fas ligation (50 ng/ml CH11) in low serum (1% FBS) led to only 15% cell death (85% survival) (see FIG. 2).
(§3) Referring to FIG. 2, human atherosclerosis-derived cells were pretreated with the specified drugs for 24 prior to treatment with the activating fas antibody CH11 (50 ng/ml). […] The drugs used were AA (20 μg/ml), BCLI (20 μM), interferon-gamma (IFN, 50 U/ml), and SP600125 (SP, 20 μM). The upper panel reports the MTT optical density (absorbance at 570 nm) without (control) or with fas ligation (+fas) as the mean, with error bars indicating±standard error of measurement (s.e.m., n=3 per group). The lower panel expresses % survival based on the MTT values above (MTT+fas/MTT Control)×100.

[2] = tested on: cell line R1 (human cell line derived from carotid artery atherosclerotic lesion); test: MTT cell survival after fas ligation (CH11), cell line R1; format: cell-based
Description: as §1, §2
However, in the presence of fas, the cells pretreated with BCLI underwent a high degree of apoptosis (70% cell death). […] Thus, the drug is neither toxic nor capable of inducing apoptosis alone at this concentration.
Referring to FIG. 1, A human cell line derived from carotid artery atherosclerotic lesion was plated at known density and then subgroups of 3 wells were treated with various drugs prior to exposure to fas ligation by the activating CH11 antibody (+fas). Pretreatment with flavopiridol (Flavo, 50 nM) or BCLI (Bcl-inh, 20 μM or 100 μM) was followed 24 hours later by addition of CH11 activating antibody to fas (50 ng/ml). After fas ligation, cell survival was evaluated 24 hours later by measuring the number of viable cells using the metabolic dye MTT, which is converted to a blue dye that absorbs at 570 nm. Values reflect the mean±s.e.m. (n=3 per group).

[3] = tested on: R1 cells over-expressing Bcl-Xl (R1 bclXL); test: MTT cell survival after fas ligation (CH11), R1 cells over-expressing Bcl-Xl; format: cell-based, human; conditions: AA 20 μg/ml; BCLI 20 μM; IFN 50 U/ml; SP 20 μM; CH11 50 ng/ml
Description: as §2
In one example, to determine whether the effect of BCLI and AA was via interaction with their intended targets (Bcl-Xl and Bcl-2), the drugs were tested in R1 cells over-expressing Bcl-Xl (R1 bclXL).
as §3

Human lesion cells = test: MTT assay for sensitivity to fas-induced apoptosis in human lesion cells; format: cell-based; conditions: for death with fas ligation (sensitivity to apoptosis): 24 h, 20% death without drug
Description: as §1, §2
FIG. 3 depicts the effect of 2-methoxy-antimycin A3 (AA3) and gossypol on the sensitivity to apoptosis in human lesion cells. Human lesion cells were plated and treated as above for 24 hours with the specified concentrations of drug. Fas ligation was initiated with 50 ng/ml of activating antibody CH11 and 24 hours later the number of cell surviving was measured by their metabolism of MTT. Bars are mean±s.d. (n=4 per group). A reduction in MTT levels indicates cell death.
FIG. 4 depicts the effect of HA14-1 and 2,3-DCPE on sensitivity to fas-induced apoptosis. Human lesion cells were plated and treated as above for 24 hours with the specified concentrations […] of HA14-1 (H) or 2,3-DCPE (D). Fas ligation was initiated with 50 ng/ml of activating antibody CH11 and 24 hours later the number of cell surviving was measured by their metabolism of MTT. Bars are mean±s.d. (n=2 per group). A reduction in MTT levels indicates cell death.

Compound: 2,9-dimethoxy-11,12-dihydrodibenzo[c,g][1,2]-diazocine 5,6-dioxide (A) and 5,5′-Dimethoxy-2,2′-dinitrosobenzyl (B) [BCLI]
- effect on cell survival in the absence of fas (drug alone) ([1]; BCLI 20 μM): slightly more apoptosis alone
- effect upon cell survival in the absence of the activating antibody to fas ([2]; 20 μM, no CH11): little or no effect
- effect on cell survival in the absence of fas ligation ([2]; 100 μM, no CH11): substantial effect on cell survival
- cell death (apoptosis) in the presence of fas ([2]; BCLI pretreatment 20 μM, 24 h, CH11 50 ng/ml, MTT 24 h later): 70%
- effectiveness in Bcl-Xl over-expressing cells compared with GFP control cells [3]: markedly less effective

Compound: CCCC[C@H]1C(=O)O[C@H](C)[C@H](NC(=O)c2cccc(NC=O)c2OC)C(=O)O[C@@H](C)[C@@H]1OC(=O)CC(C)C [AA3, 2-methoxyantimycin A3]
- apoptosis in the presence of fas ([1]; 24 hour pretreatment 20 μg/ml, CH11 50 ng/ml, 1% FBS): 70%
- effect on cell survival in the absence of fas (drug alone) ([1]; BCLI 20 μM): only a small effect on cell survival
- death with fas ligation (sensitivity to apoptosis) (Human lesion cells; 10 μg/ml, CH11 50 ng/ml): 80%
- death with fas ligation (sensitivity to apoptosis) (Human lesion cells; 20 μg/ml, CH11 50 ng/ml): 80%
- death in the absence of fas ligation (Human lesion cells; AA3 at higher concentrations (above 20 μg/ml), no fas ligation): induced death even in the absence of fas ligation

Compound: Cl.OCCNCCCOc1cccc(Cl)c1Cl [DCPE, 2,[[3-(2,3-dichlorophenoxy)propyl]amino]ethanol-HCl]
- fas-dependent sensitization to apoptosis (Human lesion cells; only at the highest tested dose of 100 μM, CH11 50 ng/ml): significant fas-dependent sensitization to apoptosis

Compound: Cc1cc2c(C(C)C)c(O)c(O)c(C=O)c2c(O)c1-c1c(C)cc2c(C(C)C)c(O)c(O)c(C=O)c2c1O [Gossypol, 2,2′-bis(8-Formyl-1,6,7-trihydroxy-5-isopropyl-3-methylnaphthalene)]
- survival in the presence of fas (Human lesion cells; 2.5 μM, CH11 50 ng/ml, 80% survival without drug): 50%

Compound: CCOC(=O)C1=C(N)Oc2ccc(Br)cc2C1C(C#N)C(=O)OCC (centres unmarked) [HA14-1, Ethyl-2-amino-6-bromo-4-(1-cyano-2-ethoxy-2-oxoethyl)-4H-chromene-3-carboxylate]
- fas-independent death-inducing effect (Human lesion cells; 25-100 μM): fas-independent death-inducing effect
- ability to sensitize cells to fas-induced apoptosis (Human lesion cells; HA14-1, all tested concentrations, CH11 50 ng/ml): did not demonstrate any ability to sensitize cell to apoptosis

Compound: Antimycin A [AA]
- effectiveness in Bcl-Xl over-expressing cells compared with GFP control cells [3]: markedly less effective

Compound: interferon-gamma: interferon-gamma, a known sensitizing agent
- sensitizing effect to fas ligation (in words) ([1]; BCLI 20 μM, interferon-gamma 50 U/ml, SP600125 20 μM, CH11 50 ng/ml): comparable effect
- effectiveness in Bcl-Xl over-expressing cells compared with GFP control cells [3]: less effective
